Test results from patent US9540396B2, “6-arylamino pyridone carboxamide as MEK inhibitors” (Centaurus Biopharma Co., Ltd., priority 2010, dated 2017).

Experiments:
[1] = target: MEK1 kinase (Homo sapiens (Human), UniProt Q02750); experiment: MEK1 kinase enzymatic activity assay (Kinase Glo plus luminescence); format: biochemical; conditions: 60 minutes at 22 degree
Experimental: The Kinase Glo plus assay kit was purchased from Promega. The substrate, APT, DTT, and dimethylsulfoxide were purchased from Sigma-Aldrich.
The MAP2K1 (MEK1) kinase, Europium labeled Antibody, Tracer 236 and binding buffer A were purchased from Invitrogen.
Determination of Enzymatic Activity:
Compounds were diluted from DMSO stocks into 1× buffer (20 mM MOPS, PH 7.4, 5 mM MgCl2, 0.5 mM MnCl2, 100 uM Sodium Orthovanadate, 0.01% Triton X-100, 1 mM DTT). A typical reaction assay contained 0.01 nanomoles MEK1 kinase, 0.01 nanomoles ATP, 10 nanograms substrate. The screening assay essentially comprised four additions. 2 ul of diluted compounds were dispensed to 384 well white assay plates. 6 ul of kinase-substrate cocktail was then added to each well. 2 ul 5×ATP was subsequently added to each well to start the reaction. A top seal was applied and the plate was incubated at 22 degree avoiding light for 60 minutes. Finally, 10 ul of the Kinase Glo plus reagent was added to each well to stop the reaction. Incubated at room temperature and avoid light for ten minutes. The top seal was removed and the plate was counted by the EnVision 2104 multi labeled plate reader (PerkinElmer) with a standard luminescent program.

[2] = test system: phosphorylated ERK in Human A375 melanoma cancer cells; experiment: AlphaScreen assay for phosphorylated ERK in A375 cells; conditions: A-375, 1 h, compound treatment 60 minutes at 37 degree, phospho-ERK, read-out: IC50 (nM) Cell based
Experimental: The SureFire Phospho-ERK1/2 Assay kit and the AlphaScreen General IgG (Protein A) Detection kit were both purchased from PerkinElmer.
Generation of Cell Based IC50 Data • Effects of compounds in the cell were determined by the AlphaScreen assay for phosphorylated ERK. Human A375 melanoma cancer cells were plated in a 96 wells plate at 80,000 cells per well and grown in a 37 degree humidified CO2 incubator. The following day, cells were treated with a range of compound concentrations for 60 minutes at 37 degree. The cells were then lysed and 4 ul of each lysate were transferred into the 384 well white reaction plate. A cocktail of AlphaScreen beads and buffer was freshly prepared and this mixture was dispensed into each well in a room with low light. A top seal was applied and the plate was incubated at 25 degree avoiding light for two hours. The top seal was removed when the plate was counted by the EnVision multi labeled plate reader (PerkinElmer) with an optimized AlphaScreen program. […] Biological Data for Select Compounds

Chain of MEK1 kinase (Q02750 whole entry): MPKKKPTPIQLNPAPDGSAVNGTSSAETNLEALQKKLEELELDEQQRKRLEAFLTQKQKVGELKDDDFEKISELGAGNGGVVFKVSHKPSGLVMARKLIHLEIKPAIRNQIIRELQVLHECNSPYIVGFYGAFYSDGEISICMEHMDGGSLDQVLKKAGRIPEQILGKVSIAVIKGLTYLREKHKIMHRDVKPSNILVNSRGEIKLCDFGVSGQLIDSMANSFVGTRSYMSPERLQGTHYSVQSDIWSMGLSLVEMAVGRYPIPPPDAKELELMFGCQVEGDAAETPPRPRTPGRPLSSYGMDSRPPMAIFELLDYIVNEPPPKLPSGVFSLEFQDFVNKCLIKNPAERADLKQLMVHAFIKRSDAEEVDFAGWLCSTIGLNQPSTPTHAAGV

SMILES | IC50 [1] [nM] | IC50 [2] [nM]
Cn1c(Nc2ccc(I)cc2F)c(C(=O)NOCCO)c2occc2c1=O | < 100 | < 100
Cc1cc2c(=O)n(C)c(Nc3ccc(I)cc3F)c(C(=O)NOCCO)c2o1 | < 500 | < 100
Cn1c(Nc2ccc(Br)cc2F)c(C(=O)NOCCO)c2occc2c1=O | < 10000 | < 100
C[C@H](O)CONC(=O)c1c(Nc2ccc(I)cc2F)n(C)c(=O)c2ccoc12 | < 100 | < 100
C[C@@H](CO)ONC(=O)c1c(Nc2ccc(I)cc2F)n(C)c(=O)c2ccoc12 | < 100 | < 100
COCCONC(=O)c1c(Nc2ccc(I)cc2F)n(C)c(=O)c2ccoc12 | < 500 | < 100
Cn1c(Nc2ccc(I)cc2F)c(C(=O)NOCC2CC2)c2occc2c1=O | < 100 | < 100
Cn1c(Nc2ccc(I)cc2F)c(C(=O)NOC(C)(C)CO)c2occc2c1=O | < 100 | < 100
Cn1c(Nc2ccc(I)cc2F)c(C(=O)NOC[C@H](O)CO)c2occc2c1=O | < 100 | < 100
CC[C@H](O)CONC(=O)c1c(Nc2ccc(I)cc2F)n(C)c(=O)c2ccoc12 | < 100 | < 100
Cn1c(Nc2ccc(Cl)cc2Cl)c(C(=O)NOCCO)c2occc2c1=O | < 10000 | < 1000
Cn1c(Nc2ccc(Br)cc2Cl)c(C(=O)NOCCO)c2occc2c1=O | < 1000 | < 100
CONC(=O)c1c(Nc2ccc(I)cc2F)n(C)c(=O)c2ccoc12 | < 500 | < 100
CCONC(=O)c1c(Nc2ccc(I)cc2F)n(C)c(=O)c2ccoc12 | < 500 | < 100
Cn1c(Nc2ccc(I)cc2F)c(C(N)=O)c2occc2c1=O | < 1000 | < 100
Cn1c(Nc2ccc(I)cc2F)c(C(=O)NCC(O)CO)c2occc2c1=O (stereo not shown) | < 1000 | < 100
Cn1c(Nc2ccc(I)cc2Cl)c(C(=O)NOCCO)c2occc2c1=O | < 100 | < 100
Cn1c(Nc2ccc(I)cc2F)c(C(=O)NCCCO)c2occc2c1=O | < 10000 | < 100
Cn1c(Nc2ccc(I)cc2F)c(C(=O)NOCCO)c2sccc2c1=O | < 500 | < 100

SMILES | IC50 [1] [nM] | IC50 [2] [nM]
CSc1ccc(Nc2c(C(=O)NOCCO)c3occc3c(=O)n2C)c(F)c1 | < 500 | < 100
CSc1ccc(Nc2c(C(=O)NOCCO)c3occc3c(=O)n2C)c(Cl)c1 | < 1000 | < 100
Cc1nc2c(=O)n(C)c(Nc3ccc(I)cc3F)c(C(=O)NOCCO)c2o1 | < 1000 | < 100
Cc1noc2c(C(=O)NOCCO)c(Nc3ccc(I)cc3F)n(C)c(=O)c12 | < 10000 | < 100
Cc1coc2c(C(=O)NOCCO)c(Nc3ccc(I)cc3F)n(C)c(=O)c12 | < 500 | < 100
Cn1c(Nc2ccc(I)cc2F)c(C(=O)NOCCO)c2scnc2c1=O | < 10000 | < 10000
Cc1cc2c(=O)n(C)c(Nc3ccc(I)cc3F)c(C(=O)NOC[C@H](O)CO)c2o1 | < 500 | < 100
CN(C)Cc1cc2c(=O)n(C)c(Nc3ccc(I)cc3F)c(C(=O)NOCCO)c2o1 | < 500 | < 100
Cn1c(Nc2ccc(I)cc2F)c(C(=O)NOCCO)c2oc(CN3CCOCC3)cc2c1=O | < 500 | < 100
Cn1c(Nc2ccc(I)cc2F)c(C(=O)NC(=O)CO)c2occc2c1=O | < 10000 | < 500
Cn1c(Nc2ccc(I)cc2F)c(C(=O)NOCCO)c2nc(N)sc2c1=O | < 500 | < 100
CNc1nc2c(C(=O)NOCCO)c(Nc3ccc(I)cc3F)n(C)c(=O)c2s1 | < 500 | < 100
CSc1nc2c(C(=O)NOCCO)c(Nc3ccc(I)cc3F)n(C)c(=O)c2s1 | < 500 | < 100
Cn1c(Nc2ccc(I)cc2F)c(C(=O)NOCCO)c2ncsc2c1=O | < 1000 | < 100
Cn1c(Nc2ccc(I)cc2Cl)c(C(=O)NCCCO)c2occc2c1=O | < 10000 | < 100
Cc1coc2c(C(=O)NOCCO)c(Nc3ccc(I)cc3Cl)n(C)c(=O)c12 | < 500 | < 100
Cc1nc2c(C(=O)NOCCO)c(Nc3ccc(I)cc3F)n(C)c(=O)c2s1 | < 500 | < 100
Cn1c(Nc2ccc(I)cc2F)c(C(=O)N2CC(O)(C3CCCCN3)C2)c2occc2c1=O (stereo not shown) | < 1000 | < 100
CSc1nc2c(C(=O)NOCCO)c(Nc3ccc(I)cc3Cl)n(C)c(=O)c2s1 | < 100 | < 100
